Data on five compounds can be found in US7232809B2, “Mitochondrially targeted antioxidants” (Antipodean Pharmaceuticals, Inc., priority 1997, dated 2007).

The nature of data set [1]: Octan-1-ol/PBS partition coefficient. The settings on record: 200 μM, room temperature, 1 h, means±SEM of three. The data set is classed as physicochemical. Here is the method:
(§1) The IC50 values for inhibition of lipid peroxidation were determined in rat brain homogenates, and are means±SEM or range of determinations on 2–3 brain preparations. Octan-1-ol/PBS partition coefficients are means±SEM for three independent determinations. N.D. not determined. Partition coefficients were determined by mixing 200 μM of the compound in 2 ml water-saturated octanol-1-ol with 2 ml octanol-saturated-PBS at room temperature for 1 h, then the two layers were separated by brief centrifugation and their concentrations determined spectrophotometrically from standard curves prepared in PBS or octanol. To measure antioxidant efficacy four rat brains were homogenised in 15 ml 40 mM potassium phosphate (pH 7.4), 140 mM NaCl at 4° C., particulate matter was pelleted (1,000×g at 4° C. for 15 min) and washed once and the combined supernatants stored frozen. Aliquots were rapidly thawed and 5 mg protein suspended in 800 μl PBS containing antioxidant or ethanol carrier and incubated at 37° C. for 30 min. Thiobarbituric acid reactive species (TBARS) were quantitated at 532 nm by adding 200 μl conc. HClO4 and 200 μl 1% thiobarbituric acid to the incubation, heating at 100° C. for 15 min and then cooling and clarification by centrifugation (10,000×g for 2 min).

Another data set has as its system rat brain homogenates. Description: Inhibition of lipid peroxidation in rat brain homogenates (TBARS assay). Format: biochemical. Here is the method:
The rat brain homogenates were incubated with or without various concentrations of the test compounds (compound 1; native Vitamin E (α-tocopherol), bromobutyl triphenylphosphonium bromide, Trolox (a water soluble form of Vitamin E) and compound 2, ie2-(2-bromoethyl)-3,4-dihydro-2,5,7,8-tetramethyl-2H-1-benzopyran-6-ol, the precursor of compound 1 (“Brom Vit E”)) and the oxidative damage occurring over the incubation was quantitated using the TBARS assay (Stocks et al., 1974, Clin Sci Mol Med 47,215–222). From this the concentration of compound required to inhibit oxidative damage by 50% was determined. In this system 210 nM compound 1 inhibited oxidative stress by 50% while the corresponding value for native Vitamin E was 36 nM. The value for bromobutyltriphenylphosphonium bromide, which contains the triphenylphosphonium moiety but not the antioxidant Vitamin E moiety was 47 μM. […] Further details of the experimental procedures and results are set out below.
as §1

Data set [2] deals with pentane extracted beef heart mitochondria. Description: Reactions with pentane-extracted beef heart mitochondria. The note with it: pentane extracted beef heart mitochondria, NADH 125 μM, 50 μM compound. Format: biochemical. Here is the method: Pentane extracted beef heart mitochondria (100 μg protein/ml) were suspended in 50 mM sodium phosphate, pH 7.2 at 20° C. In Panel A NADH (125 μM) was added and A340 was monitored and ubiquinone-1 (UQ-1; 50 μM added where indicated. This was repeated in Panel b, except that mitoubiquinone (50 μM) was added. In Panel C pentane extracted mitochondria were incubated with mitoquinone (50 μM), A275 was monitored and succinate (5 mM) and malonate (20 mM) added where indicated. In Panel D pentane-extracted mitochondria were incubated with NADH (125 μM), ferricytochrome c (50 μM) and A550 was monitored and mitoquinone (50 μM) was added where indicated. Addition of myxathiazol inhibited the rate of reduction by about 60–70%;
Mitoquinone/ol may be picking up and donating electrons directly from the active sites of the respiratory complexes, or it could be equilibrating with the endogenous mitochondrial ubiquinone pool. To address this question the endogenous ubiquinone pool was removed from beef heart mitochondria by pentane extraction.

The mark [3] stands for this setting: means±SEM or range, 2–3 brain preparations, read-out: IC50 for inhibition of lipid peroxidation.
The mark [4] stands for this setting: TBARS, read-out: concentration that inhibited oxidative stress by 50%.

Where two headings read alike, the source gives them in different places.

On to `Cc1c(C)c2c(c(C)c1O)CCC(C)(CCBr)O2` (centres unmarked) [Bromo Vit E, 2-(2-bromoethyl)-3,4-dihydro-6-hydroxy-2,5,7,8-tetramethyl-2H-1-benzopyran], for which the “Octanol:PBS partition coefficient” value in data set [1] is 33.1 ± 4.4. The IC50 with rat brain homogenates (setting [3]) was 0.045 ± 0.026 µM.

Consider `Cc1c(C)c2c(c(C)c1O)CC[C@@](C)(CCC[C@H](C)CCC[C@H](C)CCCC(C)C)O2` [α-Tocopherol, α-tocopherol], for which, in data set [1], the “Octanol:PBS partition coefficient” value was 27.4 ± 1.0. Also, in the data set on rat brain homogenates (setting [4]), the IC50 is 0.036 µM.

For `BrCCCC[P+](c1ccccc1)(c1ccccc1)c1ccccc1.[Br-]` [BrBTP, bromobutyltriphenylphosphonium bromide], in data set [1], the “Octanol:PBS partition coefficient” value came out at 3.83 ± 0.22. Further, in the data set with rat brain homogenates (setting [4]), the IC50 was 47 µM.

`Cc1c(C)c2c(c(C)c1O)CCC(C)(C(=O)O)O2` (centres unmarked) [Trolox]: the IC50 in the data set on rat brain homogenates (setting [3]) was found to be 18.5 ± 5.9 µM.

On to `COC1=C(OC)C(=O)C(CC=C(C)C)=C(C)C1=O` [ubiquinone-1, reference compound], for which the “restoration of NADH oxidation” value in data set [2] is listed as “partially restored”.
